# Data taken from patent publication US8247211B2, “Glycopeptide antibiotics” (American Cyanamid Company, priority 2001, dated 2012).
# Tests used:
# Assay in all cases: In vitro antibacterial evaluation: minimum inhibitory concentration (MIC), broth dilution method
# Type in all cases: cell-based
# Escherichia coli = settings: 18 hours at 35° C.
# Outline: (§1)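 Test strains, among them recent clinical isolates carrying methicillin, penicillin and/or vancomycin resistance, were inoculated at 5×10^5 CFU/mL. A broth dilution series spanning 64-0.06 μg/mL in Muller-Hinton II […] (NCCLS M7-A2) defined the MIC as the lowest growth-inhibiting concentration.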
# Enterococcus sp. = settings: 18 hours at 35° C.
# Outline: as §1
# Staphylococcus sp. = settings: for MIC Staphylococcus aureus (ATCC 29213): strain ATCC 29213; for MIC Staphylococcus aureus (GC 1131): strain GC 1131; for MIC Staphylococcus aureus (GC 3051): strain GC 3051; for MIC Staphylococcus aureus (GC 3053): strain GC 3053; for MIC Staphylococcus aureus (GC 4541): strain GC 4541; for MIC Staphylococcus aureus (GC 4542): strain GC 4542; for MIC Staphylococcus aureus-SMITH (GC 4543): strain GC 4543; for MIC Staphylococcus aureus (GC 4544): strain GC 4544; for MIC Staphylococcus aureus (GC 4545): strain GC 4545; for MIC Staphylococcus haemolyticus (GC 4546): strain GC 4546; for MIC Coagulase Negative Staphylococcus (GC 4547): strain GC 4547; for MIC Coagulase Negative Staphylococcus (GC 4548): strain GC 4548; for MIC Coagulase Negative Staphylococcus (GC 4549): strain GC 4549; for MIC Coagulase Negative Staphylococcus (GC 4551): strain GC 4551
# Outline: as §1
# Streptococcus sp. = settings: 18 hours at 35° C.
# Outline: as §1
# [1] = Enterococcus faecalis (ATCC 29212)
# [2] = Enterococcus faecalis (GC 2242)
# [3] = Enterococcus faecalis (GC 2691)
# [4] = Enterococcus faecalis (GC 3059)
# [5] = Enterococcus faecalis (GC 4552)
# [6] = Enterococcus faecalis (GC 4553)
# [7] = Enterococcus faecalis (GC 4554)
# [8] = Enterococcus faecalis (GC 6189)
# [9] = broth dilution, inoculum 5×10^5 CFU/mL
# [10] = Streptococcus agalactiae (GC 4564)
# [11] = Streptococcus pneumoniae (ATCC 6301)
# [12] = Streptococcus pneumoniae (GC 1894)
# [13] = Streptococcus pneumoniae (GC 4565)
# [14] = Streptococcus pyogenes (GC 4563)
smiles,measurement,setting,value
"CC(c1ccccc1)C1NC(=O)CNC(=O)C(CO)NC(=O)C(C(O)C2CNC(=N)N2C2OC(CO)C(O)C(O)C2O)NC(=O)C(C(O)C2CNC(=N)N2)NC(=O)C(Cc2ccc(OC3OC(CO)C(OC4OC5COC6(CC(C)(C)CC(C)(C)C6)OC5C(O)C4O)C(O)C3O)cc2)NC1=O (stereo not drawn) [Example 207, Cyclo[glycyl-β-methylphenylalanyl-O-[4-O-[4,6-O-(3,3,5,5-tetramethylcyclohexylidene)hexopyranosyl]hexopyranosyl]tyrosyl-3-(2-iminoimidazolidin-4-yl)seryl-3-(3-hexopyranosyl-2-iminoimidazolidin-4-yl)serylseryl]]",MIC Escherichia coli (ATCC 25922),Escherichia coli,32 µg/mL
same,MIC Escherichia coli (GC 4559),Escherichia coli,64 µg/mL
same,MIC Escherichia coli (GC 4560),Escherichia coli,2 µg/mL
same,MIC Enterococcus avium (GC 4558),Enterococcus sp.; Enterococcus avium (GC 4558),1 µg/mL
same,MIC Enterococcus faecalis (ATCC 29212),Enterococcus sp.; [1],4 µg/mL
same,MIC Enterococcus faecalis (GC 2242),Enterococcus sp.; [2],4 µg/mL
same,MIC Enterococcus faecalis (GC 2691),Enterococcus sp.; [3],2 µg/mL
same,MIC Enterococcus faecalis (GC 3059),Enterococcus sp.; [4],2 µg/mL
same,MIC Enterococcus faecalis (GC 4552),Enterococcus sp.; [5],4 µg/mL
same,MIC Enterococcus faecalis (GC 4553),Enterococcus sp.; [6],4 µg/mL
same,MIC Enterococcus faecalis (GC 4554),Enterococcus sp.; [7],4 µg/mL
same,MIC Enterococcus faecalis (GC 6189),Enterococcus sp.; [8],2 µg/mL
same,MIC Enterococcus faecium (GC 2243),Enterococcus sp.; Enterococcus faecium (GC 2243),4 µg/mL
same,MIC Enterococcus faecium (GC 4556),Enterococcus sp.; Enterococcus faecium (GC 4556),4 µg/mL
same,MIC Enterococcus faecium (GC 4557),Enterococcus sp.; Enterococcus faecium (GC 4557),2 µg/mL
same,MIC Enterococcus avium (GC 4558),Enterococcus sp.; [9],1 µg/mL
same,MIC Enterococcus faecalis (ATCC 29212),Enterococcus sp.; [9],4 µg/mL
same,MIC Enterococcus faecalis (GC 2242),Enterococcus sp.; [9],4 µg/mL
same,MIC Enterococcus faecalis (GC 2691),Enterococcus sp.; [9],2 µg/mL
same,MIC Enterococcus faecalis (GC 3059),Enterococcus sp.; [9],2 µg/mL
same,MIC Enterococcus faecalis (GC 4552),Enterococcus sp.; [9],4 µg/mL
same,MIC Enterococcus faecalis (GC 4553),Enterococcus sp.; [9],4 µg/mL
same,MIC Enterococcus faecalis (GC 4554),Enterococcus sp.; [9],4 µg/mL
same,MIC Enterococcus faecalis (GC 6189),Enterococcus sp.; [9],2 µg/mL
same,MIC Enterococcus faecium (GC 2243),Enterococcus sp.; [9],4 µg/mL
same,MIC Enterococcus faecium (GC 4556),Enterococcus sp.; [9],4 µg/mL
same,MIC Enterococcus faecium (GC 4557),Enterococcus sp.; [9],2 µg/mL
same,MIC Staphylococcus aureus (ATCC 29213),Staphylococcus sp.,1 µg/mL
same,MIC Staphylococcus aureus (GC 1131),Staphylococcus sp.,2 µg/mL
same,MIC Staphylococcus aureus (GC 3051),Staphylococcus sp.,2 µg/mL
same,MIC Staphylococcus aureus (GC 3053),Staphylococcus sp.,1 µg/mL
same,MIC Staphylococcus aureus (GC 4541),Staphylococcus sp.,1 µg/mL
same,MIC Staphylococcus aureus (GC 4542),Staphylococcus sp.,1 µg/mL
same,MIC Staphylococcus aureus-SMITH (GC 4543),Staphylococcus sp.,1 µg/mL
same,MIC Staphylococcus aureus (GC 4544),Staphylococcus sp.,1 µg/mL
same,MIC Staphylococcus aureus (GC 4545),Staphylococcus sp.,1 µg/mL
same,MIC Staphylococcus haemolyticus (GC 4546),Staphylococcus sp.,1 µg/mL
same,MIC Coagulase Negative Staphylococcus (GC 4547),Staphylococcus sp.,1 µg/mL
same,MIC Coagulase Negative Staphylococcus (GC 4548),Staphylococcus sp.,0.5 µg/mL
same,MIC Coagulase Negative Staphylococcus (GC 4549),Staphylococcus sp.,0.5 µg/mL
same,MIC Coagulase Negative Staphylococcus (GC 4551),Staphylococcus sp.,4 µg/mL
same,MIC Streptococcus agalactiae (GC 4564),Streptococcus sp.; [10],<0.12 µg/mL
same,MIC Streptococcus pneumoniae (ATCC 6301),Streptococcus sp.; [11],<0.12 µg/mL
same,MIC Streptococcus pneumoniae (GC 1894),Streptococcus sp.; [12],<0.12 µg/mL
same,MIC Streptococcus pneumoniae (GC 4565),Streptococcus sp.; [13],<0.12 µg/mL
same,MIC Streptococcus pyogenes (GC 4563),Streptococcus sp.; [14],<0.12 µg/mL
same,MIC Streptococcus agalactiae (GC 4564),Streptococcus sp.; [9],<0.12 µg/mL
same,MIC Streptococcus pneumoniae (ATCC 6301),Streptococcus sp.; [9],<0.12 µg/mL
same,MIC Streptococcus pneumoniae (GC 1894),Streptococcus sp.; [9],<0.12 µg/mL
same,MIC Streptococcus pneumoniae (GC 4565),Streptococcus sp.; [9],<0.12 µg/mL
same,MIC Streptococcus pyogenes (GC 4563),Streptococcus sp.; [9],<0.12 µg/mL
"CC(c1ccccc1)C1NC(=O)CNC(=O)C(CO)NC(=O)C(C(O)C2CNC(=N)N2C2OC(CO)C(O)C(O)C2O)NC(=O)C(C(O)C2CNC(=N)N2)NC(=O)C(Cc2ccc(OC3OC(CO)C(OC4OC5COC6(CCC(C(C)(C)C)CC6)OC5C(O)C4O)C(O)C3O)cc2)NC1=O (stereo not drawn) [Example 208, Cyclo[glycyl-β-methylphenylalanyl-O-[4-O-[4,6-O-(4-tert, butylcyclohexylidene)hexopyranosyl]hexopyranosyl]tyrosyl-3-(2-iminoimidazolidin-4-yl)seryl-3-(3-hexopyranosyl-2-iminoimidazolidin-4-yl)serylseryl]]",MIC Escherichia coli (ATCC 25922),Escherichia coli,64 µg/mL
same,MIC Escherichia coli (GC 4559),Escherichia coli,>64 µg/mL
same,MIC Escherichia coli (GC 4560),Escherichia coli,8 µg/mL
same,MIC Enterococcus avium (GC 4558),Enterococcus sp.; Enterococcus avium (GC 4558),4 µg/mL
same,MIC Enterococcus faecalis (ATCC 29212),Enterococcus sp.; [1],8 µg/mL
same,MIC Enterococcus faecalis (GC 2242),Enterococcus sp.; [2],8 µg/mL
same,MIC Enterococcus faecalis (GC 2691),Enterococcus sp.; [3],8 µg/mL
same,MIC Enterococcus faecalis (GC 3059),Enterococcus sp.; [4],8 µg/mL
same,MIC Enterococcus faecalis (GC 4552),Enterococcus sp.; [5],8 µg/mL
same,MIC Enterococcus faecalis (GC 4553),Enterococcus sp.; [6],8 µg/mL
same,MIC Enterococcus faecalis (GC 4554),Enterococcus sp.; [7],8 µg/mL
same,MIC Enterococcus faecalis (GC 6189),Enterococcus sp.; [8],8 µg/mL
same,MIC Enterococcus faecium (GC 2243),Enterococcus sp.; Enterococcus faecium (GC 2243),8 µg/mL
same,MIC Enterococcus faecium (GC 4556),Enterococcus sp.; Enterococcus faecium (GC 4556),8 µg/mL
same,MIC Enterococcus faecium (GC 4557),Enterococcus sp.; Enterococcus faecium (GC 4557),8 µg/mL
same,MIC Enterococcus avium (GC 4558),Enterococcus sp.; [9],4 µg/mL
same,MIC Enterococcus faecalis (ATCC 29212),Enterococcus sp.; [9],8 µg/mL
same,MIC Enterococcus faecalis (GC 2242),Enterococcus sp.; [9],8 µg/mL
same,MIC Enterococcus faecalis (GC 2691),Enterococcus sp.; [9],8 µg/mL
same,MIC Enterococcus faecalis (GC 3059),Enterococcus sp.; [9],8 µg/mL
same,MIC Enterococcus faecalis (GC 4552),Enterococcus sp.; [9],8 µg/mL
same,MIC Enterococcus faecalis (GC 4553),Enterococcus sp.; [9],8 µg/mL
same,MIC Enterococcus faecalis (GC 4554),Enterococcus sp.; [9],8 µg/mL
same,MIC Enterococcus faecalis (GC 6189),Enterococcus sp.; [9],8 µg/mL
same,MIC Enterococcus faecium (GC 2243),Enterococcus sp.; [9],8 µg/mL
same,MIC Enterococcus faecium (GC 4556),Enterococcus sp.; [9],8 µg/mL
same,MIC Enterococcus faecium (GC 4557),Enterococcus sp.; [9],8 µg/mL
same,MIC Staphylococcus aureus (ATCC 29213),Staphylococcus sp.,4 µg/mL
same,MIC Staphylococcus aureus (GC 1131),Staphylococcus sp.,8 µg/mL
same,MIC Staphylococcus aureus (GC 3051),Staphylococcus sp.,4 µg/mL
same,MIC Staphylococcus aureus (GC 3053),Staphylococcus sp.,4 µg/mL
same,MIC Staphylococcus aureus (GC 4541),Staphylococcus sp.,8 µg/mL
same,MIC Staphylococcus aureus (GC 4542),Staphylococcus sp.,4 µg/mL
same,MIC Staphylococcus aureus-SMITH (GC 4543),Staphylococcus sp.,4 µg/mL
same,MIC Staphylococcus aureus (GC 4544),Staphylococcus sp.,8 µg/mL
same,MIC Staphylococcus aureus (GC 4545),Staphylococcus sp.,4 µg/mL
same,MIC Staphylococcus haemolyticus (GC 4546),Staphylococcus sp.,4 µg/mL
same,MIC Coagulase Negative Staphylococcus (GC 4547),Staphylococcus sp.,4 µg/mL
same,MIC Coagulase Negative Staphylococcus (GC 4548),Staphylococcus sp.,4 µg/mL
same,MIC Coagulase Negative Staphylococcus (GC 4549),Staphylococcus sp.,4 µg/mL
same,MIC Coagulase Negative Staphylococcus (GC 4551),Staphylococcus sp.,4 µg/mL
same,MIC Coagulase Negative Staphylococcus (GC 6257),Staphylococcus sp.; strain GC 6257,4 µg/mL
same,MIC Streptococcus agalactiae (GC 4564),Streptococcus sp.; [10],0.12 µg/mL
same,MIC Streptococcus pneumoniae (ATCC 6301),Streptococcus sp.; [11],<0.06 µg/mL
same,MIC Streptococcus pneumoniae (GC 1894),Streptococcus sp.; [12],<0.06 µg/mL
same,MIC Streptococcus pneumoniae (GC 4565),Streptococcus sp.; [13],<0.06 µg/mL
same,MIC Streptococcus pyogenes (GC 4563),Streptococcus sp.; [14],0.12 µg/mL
same,MIC Streptococcus agalactiae (GC 4564),Streptococcus sp.; [9],0.12 µg/mL
same,MIC Streptococcus pneumoniae (ATCC 6301),Streptococcus sp.; [9],<0.06 µg/mL
same,MIC Streptococcus pneumoniae (GC 1894),Streptococcus sp.; [9],<0.06 µg/mL
same,MIC Streptococcus pneumoniae (GC 4565),Streptococcus sp.; [9],<0.06 µg/mL
same,MIC Streptococcus pyogenes (GC 4563),Streptococcus sp.; [9],0.12 µg/mL
